# ChEMBL document CHEMBL1201862, “PubChem BioAssay data set” (2004)
# Calls of active or inactive are those of the source.
# Key:
# [1] = target: Luciferin 4-monooxygenase (Photinus pyralis, UniProt P08659); assay: inhibition of purified Photinus pyralis luciferase – biochemical, luminescence, dose response (AID 1891)
# [2] = Luminescence Cell-Based Dose Confirmation HTS to Identify Inhibitors of Platelet Dense Granule Release. [Related pubchem assays: 1663 (Primary HTS), 1678 (Summary of Project)]; type: functional
# Large T antigen = Large T antigen (Simian virus 40, UniProt P03070); type: functional, Betapolyomavirus macacae;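 further: Confirmatory-stage PubChem screen for compounds that inhibit SV40 T antigen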
# cells [3] = type: functional, cell-based
# cells [4] = type: functional, cell-based; remark: listed apart in the source
# [5] = target: Induced myeloid leukemia cell differentiation protein Mcl-1 (Homo sapiens, UniProt Q07820); type: functional
# [6] = target: Heat shock protein HSP 90-alpha (Homo sapiens, UniProt P07900); type: functional, organism-based
# [7] = loss of viability in HepG2 cells – cell-based, CellTiter-Glo, cherry-picked, cytotoxicity control for Shn3 inhibitor project, dose response (AID 624134); type: functional
# [8] = Luminescence Cell-Based Dose Retest to Confirm Inhibitors of Cancer Stem Cells. [Related pubchem assays (depositor defined):AID2717, AID2721]; type: functional; details: Homo sapiens
# [9] = reduction of Shn3 3'UTR-driven luciferase in osteoblasts – cell-based, Clone20 osteoblasts, firefly luciferase, cherry-picked, dose response (AID 624132); type: functional;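 further: firefly luciferase luminescence from reporter carrying the Shn3 3'UTR in osteoblasts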
# [10] = non-specific 3'UTR reporter inhibition in Clone20-Shn3RL – cell-based, Renilla luciferase, cherry-picked, counter-screen for Shn3 inhibitor project, dose response (AID 624133); type: functional
# [11] = HEK-293T cell viability reduction – luminescence, B-cell screen hits, cytotoxicity control for BCR NF-kB inhibitor project, dose response (AID 489021); type: functional, cell-based;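 further: HEK-293T cells carrying an NF-kB luciferase reporter; cells exposed to compound for about 14 hours before viability readout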
# [12] = viability of uninfected HEp-2 cells – cell-based, HTS, cytotoxicity control for RSV inhibitor project, dose response (AID 2410); type: functional; details: human respiratory syncytial virus
# cells [13] = type: functional, cell-based; remark: listed apart in the source
# [14] = target: T1, Trace amine-associated receptor 1 (Homo sapiens, UniProt Q96RJ0); assay: Counterscreen for agonists of the human trace amine associated receptor 1 (hTAAR1): Fluorescence-based cell-based high throughput dose response assay to identify hTAAR1 agonist that also desensitize TAAR1 receptor response.; type: functional
# T1 sequence (Q96RJ0 whole entry): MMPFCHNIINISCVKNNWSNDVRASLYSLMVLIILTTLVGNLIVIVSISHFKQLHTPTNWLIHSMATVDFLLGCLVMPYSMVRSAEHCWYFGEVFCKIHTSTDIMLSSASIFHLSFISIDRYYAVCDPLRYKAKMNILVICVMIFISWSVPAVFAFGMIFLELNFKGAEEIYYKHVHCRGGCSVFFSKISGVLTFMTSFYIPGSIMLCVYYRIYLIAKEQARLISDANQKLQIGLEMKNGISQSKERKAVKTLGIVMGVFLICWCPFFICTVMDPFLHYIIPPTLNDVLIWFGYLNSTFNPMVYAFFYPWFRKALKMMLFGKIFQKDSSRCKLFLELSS
# cells [15] = type: functional, cell-based; remark: listed apart in the source
# [16] = target: T1, Trace amine-associated receptor 1; assay: Fluorescence-based cell-based high throughput dose response assay to identify agonists of the human trace amine associated receptor 1 (TAAR1).; type: functional
# [17] = target: T2, Rac GTPase-activating protein 1 (Homo sapiens, UniProt Q9H0H5); assay: blockers of MgcRacGAP-driven Rac1 GTP hydrolysis – biochemical, ADP Hunter fluorescence, primary and confirmatory, confirmation (AID 624330); type: functional
# T2 sequence (Q9H0H5 whole entry): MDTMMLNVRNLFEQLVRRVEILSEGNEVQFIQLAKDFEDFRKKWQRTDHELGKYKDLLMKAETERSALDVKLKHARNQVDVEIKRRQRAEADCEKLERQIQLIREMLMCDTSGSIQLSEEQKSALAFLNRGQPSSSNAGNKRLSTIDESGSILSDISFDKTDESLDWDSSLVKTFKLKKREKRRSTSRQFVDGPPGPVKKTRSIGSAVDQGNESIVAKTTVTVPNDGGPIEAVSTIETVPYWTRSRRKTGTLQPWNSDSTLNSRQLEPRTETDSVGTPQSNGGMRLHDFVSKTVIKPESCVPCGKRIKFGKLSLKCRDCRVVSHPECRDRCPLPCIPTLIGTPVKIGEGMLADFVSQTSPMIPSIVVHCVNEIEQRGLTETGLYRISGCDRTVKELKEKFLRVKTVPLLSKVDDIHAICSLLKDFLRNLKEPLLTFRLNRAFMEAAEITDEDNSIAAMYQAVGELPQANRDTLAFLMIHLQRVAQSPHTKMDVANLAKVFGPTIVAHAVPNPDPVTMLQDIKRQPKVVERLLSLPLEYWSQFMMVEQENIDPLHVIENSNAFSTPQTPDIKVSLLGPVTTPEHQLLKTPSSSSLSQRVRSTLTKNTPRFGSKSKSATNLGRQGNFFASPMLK
# [18] = target: T3, Carboxy-terminal domain RNA polymerase II polypeptide A small phosphatase 1 (Homo sapiens, UniProt Q9GZU7); assay: CTDSP1 inhibitors, concentration-response, biochemical, absorbance readout, ultra-high-throughput screen actives (AID 540297); type: functional
# T3 sequence (Q9GZU7 whole entry): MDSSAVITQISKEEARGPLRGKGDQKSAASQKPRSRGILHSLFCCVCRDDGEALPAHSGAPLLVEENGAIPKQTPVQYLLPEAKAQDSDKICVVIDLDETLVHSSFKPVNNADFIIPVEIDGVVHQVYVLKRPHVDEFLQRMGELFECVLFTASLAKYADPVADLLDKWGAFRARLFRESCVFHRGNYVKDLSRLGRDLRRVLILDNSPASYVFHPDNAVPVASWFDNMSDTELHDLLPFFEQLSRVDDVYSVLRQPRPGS
# Streptococcus = assay: GAS UMAA2166 growth inhibition – luminescence, BacTiterGlo, counter-screen for streptokinase expression inhibitor project, dose response (AID 1915); type: functional, organism-based;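 further: potency for reduction of bacterial viability or growth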
# Vero = assay: cells; type: functional; details: Chlorocebus sabaeus
# Streptokinase A = target: T4, Streptokinase A (Streptococcus pyogenes serotype M1, UniProt P10520); assay: viability-normalized secreted streptokinase activity reduction – plasminogen activation absorbance, OD405, dose response (AID 1914); type: functional, Streptococcus pyogenes M1 GAS;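 further: secreted streptokinase activity via plasminogen activation per viability signal from cell pellet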
# T4 sequence (P10520 whole entry): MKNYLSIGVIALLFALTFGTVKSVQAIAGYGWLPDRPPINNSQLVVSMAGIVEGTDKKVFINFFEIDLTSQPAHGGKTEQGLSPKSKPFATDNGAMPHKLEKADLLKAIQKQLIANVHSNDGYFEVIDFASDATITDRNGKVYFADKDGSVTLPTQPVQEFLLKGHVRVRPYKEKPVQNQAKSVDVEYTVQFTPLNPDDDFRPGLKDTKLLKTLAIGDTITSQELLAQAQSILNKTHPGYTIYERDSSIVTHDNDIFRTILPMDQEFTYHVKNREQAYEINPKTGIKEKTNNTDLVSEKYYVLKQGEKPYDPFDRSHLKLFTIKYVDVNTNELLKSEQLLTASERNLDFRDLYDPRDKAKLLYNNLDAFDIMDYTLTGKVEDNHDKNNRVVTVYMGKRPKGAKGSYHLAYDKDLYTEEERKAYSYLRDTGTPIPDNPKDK
# [19] = tested on: Streptococcus sp. 'group A'; assay: Streptococcus pyogenes SK(-)GAS viability under kanamycin – luminescence, BacTiterGlo, confirmation, counter-screen for streptokinase expression inhibitor project, dose response (AID 1900); type: functional, organism-based
# Caspase-6 = target: T5, Caspase-6 (Homo sapiens, UniProt P55212); assay: inhibition of CASP6 peptide cleavage – biochemical, VEID-R110 fluorescence, cherry-pick, dose response (AID 720632)
# T5 sequence (P55212 whole entry): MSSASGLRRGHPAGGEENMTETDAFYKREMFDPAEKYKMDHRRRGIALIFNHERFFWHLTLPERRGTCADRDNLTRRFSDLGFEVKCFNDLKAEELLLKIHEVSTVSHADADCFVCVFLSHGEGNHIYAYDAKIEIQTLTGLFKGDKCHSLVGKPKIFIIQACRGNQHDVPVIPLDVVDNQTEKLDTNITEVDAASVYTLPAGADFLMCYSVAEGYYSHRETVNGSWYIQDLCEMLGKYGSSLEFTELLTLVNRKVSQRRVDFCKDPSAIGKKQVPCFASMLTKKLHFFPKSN
# [20] = NIH3T3 cell viability loss – ATP luminescence, mouse fibroblasts, counter-screen, dose response (AID 2010); type: functional, cell-based;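 further: cells exposed to compound for about 90 hours before reading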
# [21] = Trypanosoma cruzi growth suppression in host cells – NIH3T3 host cells, beta-gal luminescence, confirmation (AID 2044); type: functional, cell-based;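 further: intracellular parasites grown in NIH/3T3 mouse fibroblasts as host cells; luminescent beta-galactosidase reporter signal from transgenic T. cruzi replicating inside host cells; inhibitors lower the luminescence signal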
# [22] = DRD fibroblast viability loss – cell-based, non-viral oncogenic, luminescence, dose response (AID 1934); type: functional; details: Homo sapiens
# BJ [23] = assay: cells; type: functional, cell-based; details: Homo sapiens
# BJ [24] = assay: BJ-TERT fibroblast viability loss – cell-based, RAS-independent, luminescence, dose response (AID 1933); type: functional; details: Homo sapiens
# BJ [25] = assay: BJ-TERT-LT-ST fibroblast viability loss – cell-based, RAS-independent, luminescence, dose response (AID 1935); type: functional; details: Homo sapiens;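 further: BJ fibroblasts immortalized with TERT plus LT and ST oncogenes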
# Sequence of Induced myeloid leukemia cell differentiation protein Mcl-1 (Q07820 whole entry): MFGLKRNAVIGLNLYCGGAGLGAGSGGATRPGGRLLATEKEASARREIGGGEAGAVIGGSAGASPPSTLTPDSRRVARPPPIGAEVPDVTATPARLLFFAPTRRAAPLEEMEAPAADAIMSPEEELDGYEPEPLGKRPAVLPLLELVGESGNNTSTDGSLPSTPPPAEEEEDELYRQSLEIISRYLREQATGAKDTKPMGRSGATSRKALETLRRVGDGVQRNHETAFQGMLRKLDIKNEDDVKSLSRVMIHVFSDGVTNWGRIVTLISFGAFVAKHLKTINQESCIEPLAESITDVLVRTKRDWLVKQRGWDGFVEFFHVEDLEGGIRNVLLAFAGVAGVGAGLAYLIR
# Sequence of Large T antigen (P03070 whole entry): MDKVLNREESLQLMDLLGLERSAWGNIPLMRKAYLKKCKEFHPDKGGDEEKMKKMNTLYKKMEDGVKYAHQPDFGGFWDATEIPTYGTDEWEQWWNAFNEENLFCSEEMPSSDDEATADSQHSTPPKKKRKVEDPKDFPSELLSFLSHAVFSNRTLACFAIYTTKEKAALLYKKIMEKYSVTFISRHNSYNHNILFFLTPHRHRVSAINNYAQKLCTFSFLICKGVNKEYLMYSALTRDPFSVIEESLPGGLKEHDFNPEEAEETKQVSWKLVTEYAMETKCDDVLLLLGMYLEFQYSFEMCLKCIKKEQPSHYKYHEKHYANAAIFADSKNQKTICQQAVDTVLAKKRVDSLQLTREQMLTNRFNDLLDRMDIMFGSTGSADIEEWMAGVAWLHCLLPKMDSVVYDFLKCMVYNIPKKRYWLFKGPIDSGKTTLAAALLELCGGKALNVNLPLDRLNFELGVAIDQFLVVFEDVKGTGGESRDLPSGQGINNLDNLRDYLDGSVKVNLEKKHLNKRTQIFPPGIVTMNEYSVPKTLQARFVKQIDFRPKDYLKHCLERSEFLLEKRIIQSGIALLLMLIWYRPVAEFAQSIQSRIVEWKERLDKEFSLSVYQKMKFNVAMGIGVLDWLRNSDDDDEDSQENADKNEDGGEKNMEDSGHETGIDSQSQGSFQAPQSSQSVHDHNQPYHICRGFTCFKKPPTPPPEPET
# Sequence of Luciferin 4-monooxygenase (P08659 whole entry): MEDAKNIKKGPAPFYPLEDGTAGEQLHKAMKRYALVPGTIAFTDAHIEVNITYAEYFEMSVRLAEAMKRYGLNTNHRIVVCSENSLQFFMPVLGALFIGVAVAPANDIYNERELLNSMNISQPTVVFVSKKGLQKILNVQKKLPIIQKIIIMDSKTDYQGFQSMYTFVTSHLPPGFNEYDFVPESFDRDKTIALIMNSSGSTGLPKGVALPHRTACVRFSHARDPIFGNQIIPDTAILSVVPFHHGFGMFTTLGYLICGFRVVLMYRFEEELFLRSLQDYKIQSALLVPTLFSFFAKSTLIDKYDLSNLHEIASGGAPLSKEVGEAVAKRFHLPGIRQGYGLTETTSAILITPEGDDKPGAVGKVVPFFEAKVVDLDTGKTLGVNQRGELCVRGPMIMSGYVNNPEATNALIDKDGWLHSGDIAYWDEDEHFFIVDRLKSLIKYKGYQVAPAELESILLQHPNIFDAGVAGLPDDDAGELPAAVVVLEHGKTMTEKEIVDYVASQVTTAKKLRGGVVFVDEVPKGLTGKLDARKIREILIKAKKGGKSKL
smiles,measurement,setting,value
N/C(=N\N=C\c1ccc(O)c(O)c1)c1nonc1N,EC50,[1],1.67 µM (active)
same,EC50,[2],1.74 µM (active)
same,IC50,Large T antigen,23.4 µM (active)
O=C(c1cc(Br)ccc1Cl)N1CCC2(CC1)OCCO2,EC50,cells [3],67 µM (active)
same,EC50,cells [4],> 350 µM (not active)
OCCNc1nc(Nc2ccccc2)nc(Nc2ccccc2)n1,IC50,[5],24.3 µM (not active)
CC(C)N(CCC(=O)c1ccc2ccccc2c1)Cc1ccccc1,AC50,[6],9.38 µM (active)
same,AC50,[7],> 70 µM (inactive)
same,AC50,[8],5.58 µM (active)
same,AC50,[9],4.22 µM (active)
same,AC50,[10],17.3 µM (active)
Cc1nc([N+](=O)[O-])c(Sc2nc3cc([N+](=O)[O-])ccc3[nH]2)n1Cc1ccccc1,IC50,[11],> 80 µM (inactive)
same,CC50,[12],12.6 µM (active)
O=C(N[C@H](C(=O)N1CCC[C@H]1C(=O)NCCc1ccccc1Cl)c1ccccc1)c1ccco1,IC50,cells [13],> 29.9 µM (inactive)
same,IC50,[14],> 29.9 µM (inactive)
same,EC50,cells [15],> 29.9 µM (inactive)
same,EC50,[16],10.3 µM (inactive)
CNC(=O)c1cccn(Cc2ccc(C(F)(F)F)cc2)c1=O,IC50,[11],> 80 µM (inactive)
COc1ccccc1N1CN(CCc2ccccc2)CN=C1S,IC50,cells [13],> 29.9 µM (inactive)
same,IC50,[14],6.11 µM (active)
same,EC50,cells [15],> 29.9 µM (inactive)
same,EC50,[16],1.28 µM (active)
CCOC(=O)c1c(C)[nH]c(C)c1S(=O)(=O)N1c2ccccc2CC1C (stereo unspecified),EC50,cells [3],> 350 µM (not active)
same,EC50,cells [4],> 350 µM (not active)
CC(C)C(=O)N1CCN(c2nc3ccc(Cl)cc3s2)CC1,EC50,cells [3],> 350 µM (not active)
same,EC50,cells [4],> 350 µM (not active)
Cc1cc(O)ccc1N/C=C1\CCCC1=O,IC50,[17],22.7 µM (active)
same,IC50,Large T antigen,29.8 µM (active)
O=C(NCN1CCc2ccccc2C1)c1cnccn1,IC50,cells [13],> 29.9 µM (inactive)
same,IC50,[14],8.03 µM (active)
same,EC50,cells [15],> 29.9 µM (inactive)
same,EC50,[16],2.14 µM (active)
COc1ccc(-c2nnc(NC(=O)c3cccs3)s2)c(OC)c1,IC50,[18],3.57 µM (active)
Cc1cc(-c2nnc(S)n2/N=C/c2c[nH]c3ccccc23)[nH]n1,IC50,Large T antigen,64 µM (active)
O=C(CSC(=S)N1CCCC1)NCCc1ccccc1,IC50,cells [13],> 29.9 µM (inactive)
same,IC50,[14],1.19 µM (active)
same,EC50,cells [15],> 29.9 µM (inactive)
same,EC50,[16],1.96 µM (active)
Cc1cccc(NC(=O)CSc2nc3nc(O)cc(O)c3s2)c1,IC50,[18],15.9 µM (active)
C[Se]C[C@@H](N)C(=O)O,IC50,[18],15 µM (active)
Cc1oc(-c2ccccc2Cl)nc1Cn1cccc1C1=NC(c2ccccc2)CO1 (stereo unspecified),EC50,Streptococcus,> 150 µM (not active)
same,CC50,Vero,> 25 µM (active)
same,EC50,Streptokinase A,> 50 µM (not active)
same,EC50,[19],> 150 µM (not active)
CC(C)c1c(O)ccc2c1CC[C@H]1C(C)(C)CCC[C@]21C [TOTAROL],AC50,[6],3.79 µM (active)
O=S(=O)(Cc1cc(Cl)nc(-c2ccncc2)n1)c1ccccc1,IC50,[5],6.12 µM (active)
CSc1nnc(C)c(/C=C/Nc2ccc(F)cc2F)n1,IC50,[18],13.3 µM (active)
COC(=O)c1ccc(COc2ccccc2/C=N/NS(=O)(=O)c2ccccc2)cc1,EC50,cells [3],> 350 µM (not active)
same,EC50,cells [4],> 350 µM (not active)
Cc1cc(/C=C2\SC(=S)N=C2O)c(C)n1-c1cccc(O)c1,AC50,[6],8.8 µM (active)
same,EC50,Streptokinase A,> 150 µM (not active)
Cc1ccc(C(=O)CSc2nnc(COc3cc(C)cc(C)c3)o2)cc1,IC50,[11],> 80 µM (inactive)
O=c1c2ccccc2[nH]c2ccc(O)cc12,AC50,Caspase-6,17.7 µM (active)
same,IC50,Large T antigen,9.16 µM (active)
[O-][Cl+3]([O-])([O-])[O-].c1ccc(-c2ccc(-c3n(-c4ccccn4)c4ccccc4[n+]3-c3ccccn3)cc2)cc1,EC50,[20],> 60 µM (not active)
same,EC50,[21],0.832 µM (active)
same,IC50,[5],> 54 µM (not active)
CCOc1ccc(/C=C2\SC(=S)N(CCCC(=O)NCCCN3CCOCC3)C2=O)cc1,EC50,[22],> 150 µM (not active)
same,EC50,BJ [23],> 150 µM (not active)
same,IC50,[11],> 80 µM (inactive)
same,EC50,BJ [24],20.1 µM (active)
same,EC50,BJ [25],> 150 µM (not active)
O=C(CC1C(=O)NCCN1CCCc1ccccc1)NCCc1ccccc1Cl (stereo unspecified),IC50,cells [13],> 29.9 µM (inactive)
same,IC50,[14],5.21 µM (active)
same,EC50,cells [15],> 29.9 µM (inactive)
same,EC50,[16],1.51 µM (active)
